Measurements reported in ChEMBL document CHEMBL4373717, “Coumarin-containing hybrids and their anticancer activities” (Eur J Med Chem, 2019).
Values after ≈ are worked out from the molar mass of the structure shown. One block for each compound: values may come before it.

How the values were obtained:
K562 = assay: Cytotoxicity against human K562 cells assessed as reduction in cell viability after 68 hrs by MTT assay; assay type: functional, cell-based; conditions: K562, 68 h
HeLa [1] = assay: Cytotoxicity against human HeLa cells assessed as reduction in cell viability after 68 hrs by MTT assay; assay type: functional, cell-based
[2] = target: RAC-alpha serine/threonine-protein kinase (Homo sapiens, UniProt P31749); assay: Inhibition of AKT phosphorylation in human K562 cells; assay type: cell-based
RAC-alpha serine/threonine-protein kinase, sequence (P31749 whole entry): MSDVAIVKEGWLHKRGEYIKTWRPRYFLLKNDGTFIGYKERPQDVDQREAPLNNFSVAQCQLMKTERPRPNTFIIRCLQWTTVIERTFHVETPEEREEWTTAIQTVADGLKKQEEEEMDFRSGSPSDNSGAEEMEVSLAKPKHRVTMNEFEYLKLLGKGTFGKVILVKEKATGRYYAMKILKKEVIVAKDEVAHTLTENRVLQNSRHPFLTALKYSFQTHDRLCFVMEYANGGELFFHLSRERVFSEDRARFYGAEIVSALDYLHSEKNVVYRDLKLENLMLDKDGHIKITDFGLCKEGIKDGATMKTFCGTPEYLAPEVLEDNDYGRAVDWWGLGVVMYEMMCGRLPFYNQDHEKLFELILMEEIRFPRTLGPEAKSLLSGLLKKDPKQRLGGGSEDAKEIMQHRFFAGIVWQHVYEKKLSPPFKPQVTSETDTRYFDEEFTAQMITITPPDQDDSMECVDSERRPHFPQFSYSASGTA

MCF7 [3] = assay: Cytotoxicity against human MCF7 cells assessed as reduction in cell viability after 68 hrs by MTT assay; assay type: functional, cell-based; conditions: MCF7, 68 h
A549 [4] = assay: Cytotoxicity against human A549 cells assessed as reduction in cell viability after 68 hrs by MTT assay; assay type: functional, cell-based; conditions: A549, 68 h
HepG2 [5] = assay: Cytotoxicity against human HepG2 cells assessed as reduction in cell viability by MTT assay; assay type: functional, cell-based; conditions: Homo sapiens, HepG2
MCF7 [6] = assay: Cytotoxicity against human MCF7 cells assessed as reduction in cell viability by MTT assay; assay type: functional, cell-based; conditions: Homo sapiens, MCF7
Caco-2 = assay: Antiproliferative activity against human Caco2 cells after 72 hrs by ELISA; assay type: functional, cell-based; conditions: Caco-2, 72 h
MCF7 [7] = assay: Antiproliferative activity against human MCF7 cells after 72 hrs by ELISA; assay type: functional, cell-based; conditions: MCF7, 72 h
HepG2 [8] = assay: Antiproliferative activity against human HepG2 cells after 72 hrs by ELISA; assay type: functional, cell-based; conditions: HepG2, 72 h
SK-MEL-28 = assay: Cytotoxicity against human SK-MEL-28 cells assessed as reduction in cell viability after 24 hrs by MTT assay; assay type: functional, cell-based; conditions: SK-MEL-28, 24 h
DU-145 = assay: Cytotoxicity against human DU145 cells assessed as reduction in cell viability after 24 hrs by MTT assay; assay type: functional, cell-based; conditions: DU-145, 24 h
A549 [9] = assay: Cytotoxicity against human A549 cells assessed as reduction in cell viability after 24 hrs by MTT assay; assay type: functional, cell-based; conditions: A549, 24 h
BT-20 = assay: Cytotoxicity against human BT20 cells assessed as reduction in cell viability after 24 hrs by MTT assay; assay type: functional, cell-based; conditions: BT-20, 24 h
HeLa [10] = assay: Antiproliferative activity against human HeLa cells by MTT assay; assay type: functional, cell-based

IC50 [2]: < 10 µM
SMILES: COc1ccc(NC(=O)Nc2ccc(Cc3c(C)c4cc(C(C)(C)C)c(O)cc4oc3=O)cn2)cc1
IC50 (K562): 1.66 to 9.27 µM | IC50 (HeLa [1]): 1.66 to 9.27 µM | IC50 (MCF7 [3]): 1.66 to 9.27 µM | IC50 (A549 [4]): 1.66 to 9.27 µM

IC50 [2]: < 10 µM
SMILES: Cc1c(Cc2ccc(NC(=O)Nc3cccc(Cl)c3)nc2)c(=O)oc2cc(O)c(C(C)(C)C)cc12
IC50 (K562): 1.66 to 9.27 µM | IC50 (HeLa [1]): 1.66 to 9.27 µM | IC50 (MCF7 [3]): 1.66 to 9.27 µM | IC50 (A549 [4]): 1.66 to 9.27 µM

SMILES: Cc1ccc2oc(=O)cc(CSc3nc(NCc4ccccc4)c(C#N)c(-c4ccccc4)n3)c2c1
IC50 (HepG2 [5]): 5.5 to 91.1 µM | IC50 (MCF7 [6]): 5.5 to 91.1 µM

IC50 (Caco-2): 5.03 to 175 µM | IC50 (MCF7 [7]): 5.03 to 175 µM | IC50 (HepG2 [8]): 5.03 µM
SMILES: C/C(=N\NC1=NC(=O)CS1)c1ccc(NS(=O)(=O)c2ccc3oc(=O)ccc3c2)cc1

SMILES: O=C(Cn1nc(Cc2ccccc2Br)[nH]c1=O)NNC(=O)c1cc2cc(Cl)cc(Cl)c2oc1=O
IC50 (SK-MEL-28): 3.1 to 37.9 µg/mL (≈ 5.47 to 66.8 µM) | IC50 (DU-145): 3.1 to 37.9 µg/mL (≈ 5.47 to 66.8 µM) | IC50 (A549 [9]): 3.1 to 37.9 µg/mL (≈ 5.47 to 66.8 µM) | IC50 (BT-20): 3.1 to 37.9 µg/mL (≈ 5.47 to 66.8 µM)

IC50 (Caco-2): 8.53 µM | IC50 (MCF7 [7]): 5.03 to 175 µM | IC50 (HepG2 [8]): 5.03 to 175 µM
SMILES: C/C(=N\Nc1ccccc1)c1ccc(NS(=O)(=O)c2ccc3oc(=O)ccc3c2)cc1

IC50 (Caco-2): 5.03 to 175 µM | IC50 (MCF7 [7]): 5.03 to 175 µM | IC50 (HepG2 [8]): 3.48 µM
SMILES: C/C(=N\Nc1nc(C)c(-c2ccccc2)s1)c1ccc(NS(=O)(=O)c2ccc3oc(=O)ccc3c2)cc1

SMILES: CCN(CC)c1ccc2cc(C(=O)NNC(=O)Cn3nc(Cc4cccc(Br)c4)[nH]c3=O)c(=O)oc2c1
IC50 (SK-MEL-28): 3.1 to 37.9 µg/mL (≈ 5.44 to 66.6 µM) | IC50 (DU-145): 3.1 to 37.9 µg/mL (≈ 5.44 to 66.6 µM) | IC50 (A549 [9]): 3.1 to 37.9 µg/mL (≈ 5.44 to 66.6 µM) | IC50 (BT-20): 3.1 to 37.9 µg/mL (≈ 5.44 to 66.6 µM)

SMILES: Cc1ccc2oc(=O)cc(CSc3nc(-c4ccccc4)c(C#N)c(N4CCNCC4)n3)c2c1
IC50 (HepG2 [5]): 5.5 to 91.1 µM | IC50 (MCF7 [6]): 5.5 to 91.1 µM

SMILES: O=C(Cn1nc(Cc2ccc(Br)cc2)[nH]c1=O)NNC(=O)c1cc2cc(Cl)cc(Cl)c2oc1=O
IC50 (SK-MEL-28): 3.1 to 37.9 µg/mL (≈ 5.47 to 66.8 µM) | IC50 (DU-145): 3.1 to 37.9 µg/mL (≈ 5.47 to 66.8 µM) | IC50 (A549 [9]): 3.1 to 37.9 µg/mL (≈ 5.47 to 66.8 µM) | IC50 (BT-20): 3.1 to 37.9 µg/mL (≈ 5.47 to 66.8 µM)

IC50 [2]: < 10 µM
SMILES: Cc1ccc(NC(=O)Nc2ccc(Cc3c(C)c4cc(C(C)(C)C)c(O)cc4oc3=O)cn2)cc1
IC50 (K562): 1.66 to 9.27 µM | IC50 (HeLa [1]): 1.66 to 9.27 µM | IC50 (MCF7 [3]): 1.66 to 9.27 µM | IC50 (A549 [4]): 1.66 to 9.27 µM

SMILES: O=C(Cn1nc(Cc2ccc(Cl)cc2)[nH]c1=O)NNC(=O)c1cc2cc(Cl)cc(Cl)c2oc1=O
IC50 (SK-MEL-28): 3.1 to 37.9 µg/mL (≈ 5.93 to 72.5 µM) | IC50 (DU-145): 3.1 to 37.9 µg/mL (≈ 5.93 to 72.5 µM) | IC50 (A549 [9]): 3.1 to 37.9 µg/mL (≈ 5.93 to 72.5 µM) | IC50 (BT-20): 3.1 to 37.9 µg/mL (≈ 5.93 to 72.5 µM)

IC50 (Caco-2): 5.03 to 175 µM | IC50 (MCF7 [7]): 5.03 to 175 µM | IC50 (HepG2 [8]): 5.03 to 175 µM
SMILES: C/C(=N\Nc1c(Cl)cc(Cl)cc1Cl)c1ccc(NS(=O)(=O)c2ccc3oc(=O)ccc3c2)cc1

IC50 (Caco-2): 5.03 to 175 µM | IC50 (MCF7 [7]): 5.03 to 175 µM | IC50 (HepG2 [8]): 5.03 to 175 µM
SMILES: C/C(=N\Nc1ccc([N+](=O)[O-])cc1[N+](=O)[O-])c1ccc(NS(=O)(=O)c2ccc3oc(=O)ccc3c2)cc1

IC50 (HeLa [10]): 9.1 to 569 nM
SMILES: COC(=O)c1sc(N/N=C(\C)c2cc3ccccc3oc2=O)nc1C

SMILES: Cc1ccc2oc(=O)cc(CSc3nc(-c4ccccc4)c(C#N)c(N4CCOCC4)n3)c2c1
IC50 (HepG2 [5]): 5.5 to 91.1 µM | IC50 (MCF7 [6]): 5.5 to 91.1 µM

IC50 [2]: < 10 µM
SMILES: Cc1c(Cc2ccc(NC(=O)Nc3ccc(F)c(F)c3)nc2)c(=O)oc2cc(O)c(C(C)(C)C)cc12
IC50 (K562): 1.66 to 7.86 µM | IC50 (HeLa [1]): 1.66 to 7.86 µM | IC50 (MCF7 [3]): 1.66 to 7.86 µM | IC50 (A549 [4]): 1.66 to 7.86 µM

IC50 [2]: < 10 µM
SMILES: Cc1c(Cc2ccc(NC(=O)Nc3ccccc3Cl)nc2)c(=O)oc2cc(O)c(C(C)(C)C)cc12
IC50 (K562): 1.66 to 9.27 µM | IC50 (HeLa [1]): 1.66 to 9.27 µM | IC50 (MCF7 [3]): 1.66 to 9.27 µM | IC50 (A549 [4]): 1.66 to 9.27 µM

IC50 (Caco-2): 5.03 to 175 µM | IC50 (MCF7 [7]): 5.03 to 175 µM | IC50 (HepG2 [8]): 5.03 to 175 µM
SMILES: C/C(=N\NC1=NC(=O)C(C)S1)c1ccc(NS(=O)(=O)c2ccc3oc(=O)ccc3c2)cc1 (stereo not drawn)

SMILES: Cc1ccc2oc(=O)cc(CSc3nc(NN)c(C#N)c(-c4ccccc4)n3)c2c1
IC50 (HepG2 [5]): 5.5 µM | IC50 (MCF7 [6]): 6.9 µM

IC50 [2]: < 10 µM
SMILES: Cc1c(Cc2ccc(NC(=O)Nc3ccc(F)cc3)nc2)c(=O)oc2cc(O)c(C(C)(C)C)cc12
IC50 (K562): 1.66 to 9.27 µM | IC50 (HeLa [1]): 1.66 to 9.27 µM | IC50 (MCF7 [3]): 1.66 to 9.27 µM | IC50 (A549 [4]): 1.66 to 9.27 µM

IC50 [2]: < 10 µM
SMILES: Cc1c(Cc2ccc(NC(=O)Nc3ccc(Br)cc3)nc2)c(=O)oc2cc(O)c(C(C)(C)C)cc12
IC50 (K562): 1.66 to 9.27 µM | IC50 (HeLa [1]): 1.66 to 9.27 µM | IC50 (MCF7 [3]): 1.66 to 9.27 µM | IC50 (A549 [4]): 1.66 to 9.27 µM
